Results published in DBAASP.
Converted amounts (≈) assume the structure as drawn.

Legend:
Assay in all cases: ≥ marks a high value that may be exact or a test limit, other limits are often not marked, values filed in µg/mL are converted to µM
[1] = tested on: Bacillus subtilis 168 HT
[2] = tested on: Escherichia coli MG1655
[3] = tested on: Staphylococcus aureus ATCC 25923
[4] = tested on: Enterococcus faecalis PCM 2673
[5] = tested on: Pseudomonas aeruginosa ATCC 9027
[6] = tested on: Escherichia coli ATCC 25922
[7] = tested on: Candida albicans ATCC 10231
[8] = tested on: Staphylococcus aureus ATCC 12600
[9] = tested on: Escherichia coli ATCC 11775
[10] = tested on: Micrococcus luteus ATCC 49732
[11] = tested on: Staphylococcus aureus ATCC 43300
[12] = tested on: Bacillus subtilis MTCC 14416
[13] = tested on: Staphylococcus aureus MTCC 9542
[14] = tested on: Vibrio cholerae
[15] = tested on: Pseudomonas aeruginosa ATCC 27853
[16] = tested on: Enterococcus faecalis ATCC 29212
[17] = tested on: Staphylococcus aureus ATCC BAA-1556
[18] = tested on: Escherichia coli K12 MG1655
[19] = tested on: Candida albicans ATCC 14053

CC[C@H](C)[C@H](NC(=O)[C@H](CCCN=C(N)N)NC(=O)[C@H](CCSC)NC(=O)[C@@H](NC(=O)[C@H](CCCN=C(N)N)NC(=O)[C@@H](N)Cc1ccccc1)[C@@H](C)CC)C(=O)N[C@@H](CC(C)C)C(=O)N[C@@H](CCCN=C(N)N)C(=O)N[C@H](C(=O)N[C@@H](CC(C)C)C(=O)N[C@@H](CCCCN)C(=O)N[C@@H](CC(C)C)C(=O)O)C(C)C [FRIMRILRVLKL]
MIC [1]: 10.3 µM (≈ 16 µg/mL) | MIC [2]: 10.3 µM (≈ 16 µg/mL)

CC[C@H](C)[C@H](NC(=O)[C@H](CCCCN)NC(=O)[C@H](CCCCN)NC(=O)[C@H](C)NC(=O)[C@@H](NC(=O)[C@H](CC(=O)O)NC(=O)[C@H](Cc1ccccc1)NC(=O)[C@H](CC(C)C)NC(=O)CN)[C@@H](C)CC)C(=O)N[C@@H](C)C(=O)N[C@@H](CCC(=O)O)C(=O)N[C@@H](CO)C(=O)N[C@@H](Cc1ccccc1)C(N)=O [GLFDIAKKIAESF]
MIC [3]: > 356 µM | MIC [4]: ≥ 178 µM | MIC [5]: > 356 µM | MIC [6]: 356 µM (≈ 512 µg/mL) | MIC [7]: 178 µM (≈ 256 µg/mL)

CC[C@H](C)[C@H](NC(=O)[C@H](CCCCN)NC(=O)[C@H](CCCCN)NC(=O)[C@@H](NC(=O)[C@@H](NC(=O)[C@H](CC(=O)O)NC(=O)[C@H](Cc1ccccc1)NC(=O)[C@H](CC(C)C)NC(=O)CN)[C@@H](C)CC)[C@@H](C)CC)C(=O)N[C@@H](C)C(=O)N[C@@H](CCC(=O)O)C(=O)N[C@@H](CO)C(=O)N[C@@H](C)C(N)=O [GLFDIIKKIAESA]
MIC [3]: > 365 µM | MIC [4]: ≥ 91.1 µM | MIC [5]: > 365 µM | MIC [6]: 91.1 µM (≈ 128 µg/mL) | MIC [7]: 365 µM (≈ 512 µg/mL)

CC[C@H](C)[C@H](NC(=O)[C@H](C)NC(=O)[C@H](C)NC(=O)[C@H](CCC(=O)O)NC(=O)[C@H](CCCCN)NC(=O)CNC(=O)[C@@H](NC(=O)[C@H](CC(N)=O)NC(=O)[C@H](CCCCN)NC(=O)[C@@H](NC(=O)[C@@H](NC(=O)[C@H](CO)NC(=O)[C@H](Cc1c[nH]c2ccccc12)NC(=O)[C@H](CC(C)C)NC(=O)CN)[C@@H](C)O)[C@@H](C)CC)C(C)C)C(=O)N[C@@H](C)C(=O)N[C@@H](C)C(=O)NCC(=O)N[C@@H](CCCCN)C(=O)N[C@@H](C)C(=O)N[C@H](C(=O)N[C@@H](CC(C)C)C(=O)NCC(=O)N[C@@H](CO)C(=O)N[C@@H](CC(C)C)C(N)=O)C(C)C [GLWSTIKNVGKEAAIAAGKAVLGSL]
MIC [8]: 0.5 µM (≈ 1.23 µg/mL) | MIC [9]: 0.5 µM (≈ 1.23 µg/mL) | MIC [10]: 2 µM (≈ 4.91 µg/mL)

CC[C@H](C)[C@@H]1NC(=O)[C@H](CCCCN)NC(=O)[C@@H](NC(=O)[C@H](CC(C)C)NC(=O)[C@@H](NC(=O)[C@H](CCC(N)=O)NC(=O)[C@@H]2CCCN2C(=O)[C@H](CC(C)C)NC(=O)[C@H](Cc2ccccc2)NC(=O)[C@H](CC(N)=O)NC(=O)[C@H](C)NC(=O)[C@H](C)NC(=O)[C@H](CC(C)C)NC(=O)CNC(=O)[C@H](C)NC(=O)[C@@H](NC(=O)[C@@H](N)Cc2cnc[nH]2)[C@@H](C)CC)[C@@H](C)CC)CSSC[C@@H](C(N)=O)NC(=O)[C@H](CCCCN)NC(=O)[C@H](CCCN=C(N)N)NC(=O)[C@H](C)NC1=O [HIAGLAANFLPQILCKIARKC]
MIC [11]: 43.8 µM (≈ 99.9 µg/mL) | MIC [2]: 21.9 µM (≈ 49.9 µg/mL) | MIC [12]: 21.9 µM (≈ 49.9 µg/mL) | MIC [13]: ≥ 43.8 µM | MIC [14]: 11 µM (≈ 25 µg/mL) | MIC [15]: > 43.8 µM

CC[C@H](C)[C@H](N)C(=O)N[C@@H](C)C(=O)NCC(=O)N[C@@H](CC(C)C)C(=O)N[C@@H](C)C(=O)N[C@@H](C)C(=O)N[C@@H](CC(N)=O)C(=O)N[C@@H](Cc1ccccc1)C(=O)N[C@@H](CC(C)C)C(=O)N1CCC[C@H]1C(=O)N[C@@H](CCC(N)=O)C(=O)N[C@H](C(=O)N[C@@H](CC(C)C)C(=O)N[C@H]1CSSC[C@@H](C(N)=O)NC(=O)[C@H](CCCCN)NC(=O)[C@H](CCCN=C(N)N)NC(=O)[C@H](C)NC(=O)[C@H]([C@@H](C)CC)NC(=O)[C@H](CCCCN)NC1=O)[C@@H](C)CC [IAGLAANFLPQILCKIARKC]
MIC [11]: > 46.6 µM | MIC [2]: 23.3 µM (≈ 49.9 µg/mL) | MIC [12]: ≥ 46.6 µM | MIC [13]: 11.7 µM (≈ 25 µg/mL) | MIC [14]: 11.7 µM (≈ 25 µg/mL) | MIC [15]: > 46.6 µM

CC[C@H](C)[C@@H]1NC(=O)[C@H](CCCCN)NC(=O)[C@@H](NC(=O)[C@H](CC(C)C)NC(=O)[C@@H](NC(=O)[C@H](CCC(N)=O)NC(=O)[C@@H]2CCCN2C(=O)[C@H](CC(C)C)NC(=O)[C@H](Cc2ccccc2)NC(=O)[C@H](CC(N)=O)NC(=O)[C@H](C)NC(=O)[C@H](C)NC(=O)[C@H](CC(C)C)NC(=O)CNC(=O)[C@H](C)NC(=O)[C@@H](NC(=O)[C@@H](N)CCCCN)[C@@H](C)CC)[C@@H](C)CC)CSSC[C@@H](C(N)=O)NC(=O)[C@H](CCCCN)NC(=O)[C@H](CCCN=C(N)N)NC(=O)[C@H](C)NC1=O [KIAGLAANFLPQILCKIARKC]
MIC [11]: > 44 µM | MIC [2]: 11 µM (≈ 25 µg/mL) | MIC [12]: ≥ 44 µM | MIC [13]: 5.5 µM (≈ 12.5 µg/mL) | MIC [14]: 11 µM (≈ 25 µg/mL) | MIC [15]: > 44 µM | MIC [16]: 22 µM (≈ 49.9 µg/mL)

CC[C@H](C)[C@H](NC(=O)[C@H](Cc1c[nH]c2ccccc12)NC(=O)[C@H](CCCN=C(N)N)NC(=O)[C@H](CCCN=C(N)N)NC(=O)[C@H](Cc1c[nH]c2ccccc12)NC(=O)[C@@H](N)CCCCN)C(=O)N[C@@H](CC(C)C)C(=O)N[C@@H](Cc1c[nH]c2ccccc12)C(=O)N[C@@H](CC(C)C)C(N)=O [KWRRWILWL]
MIC [17]: 12.5 µM (≈ 16.9 µg/mL)

CC[C@H](C)[C@H](NC(=O)[C@H](Cc1c[nH]c2ccccc12)NC(=O)[C@H](CCCN=C(N)N)NC(=O)[C@H](CCCN=C(N)N)NC(=O)[C@H](Cc1c[nH]c2ccccc12)NC(=O)[C@@H](N)CCCCN)C(=O)N[C@@H](CCCN=C(N)N)C(=O)N[C@@H](C)C(=O)N[C@@H](CC(C)C)C(N)=O [KWRRWIRAL]
MIC [17]: 25 µM (≈ 32.1 µg/mL)

CC[C@H](C)[C@H](NC(=O)[C@H](CCC(N)=O)NC(=O)[C@@H](NC(=O)[C@@H](N)CC(C)C)C(C)C)C(=O)NCC(=O)N[C@H](C(=O)N[C@@H](CCCCN)C(=O)N[C@H](C(=O)N[C@H](C(=O)NCC(=O)N[C@H](C(=O)NCC(=O)N[C@@H](CCCN=C(N)N)C(=O)N[C@@H](CC(N)=O)C(=O)N[C@@H](Cc1ccc(O)cc1)C(=O)N[C@@H](C)C(=O)N[C@@H](C)C(=O)N[C@@H](Cc1cnc[nH]1)C(=O)O)C(C)C)C(C)C)[C@@H](C)CC)[C@@H](C)O [LVQIGTKIVGVGRNYAAH]
MIC [18]: ≥ 33.8 µM | MIC [1]: ≥ 33.8 µM

CC[C@H](C)[C@H](NC(=O)[C@H](Cc1c[nH]c2ccccc12)NC(=O)[C@H](CCCN=C(N)N)NC(=O)[C@H](CCCN=C(N)N)NC(=O)[C@H](Cc1c[nH]c2ccccc12)NC(=O)[C@@H](N)CC(C)C)C(=O)N[C@@H](CCCN=C(N)N)C(=O)N[C@@H](Cc1c[nH]c2ccccc12)C(=O)N[C@@H](CC(C)C)C(N)=O [LWRRWIRWL]
MIC [17]: 12.5 µM (≈ 17.3 µg/mL)

CC(C)[C@H](NC(=O)[C@H](C)NC(=O)[C@@H](NC(=O)[C@H](C)NC(=O)[C@@H]1CCCN1)[C@@H](C)O)C(=O)N[C@@H](Cc1ccccc1)C(=O)N[C@@H](CCCCN)C(=O)O [PATAVFK]
MIC [19]: ≥ 303 µM | MIC [8]: ≥ 303 µM | MIC [9]: ≥ 101 µM | MIC [10]: ≥ 910 µM

CC(C)[C@H](NC(=O)[C@H](C)NC(=O)[C@@H](NC(=O)CNC(=O)[C@@H]1CCCN1)[C@@H](C)O)C(=O)N[C@@H](C)C(=O)N[C@@H](CCCCN)C(=O)O [PGTAVAK]
MIC [19]: ≥ 97 µM | MIC [8]: ≥ 97 µM | MIC [9]: ≥ 97 µM | MIC [10]: ≥ 97 µM

CC[C@H](C)[C@H](NC(=O)[C@H](CCCCN)NC(=O)[C@@H](N)Cc1c[nH]c2ccccc12)C(=O)N[C@@H](Cc1ccccc1)C(=O)N[C@@H](CCCCN)C(=O)N[C@@H](CC(C)C)C(=O)N[C@@H](CCCCN)C(=O)N[C@@H](CC(C)C)C(=O)N[C@@H](CCCN=C(N)N)C(=O)N[C@@H](CCSC)C(=O)N[C@@H](CC(C)C)C(=O)N[C@@H](Cc1c[nH]c2ccccc12)C(=O)O [WKIFKLKLRMLW]
MIC [1]: ≥ 38.5 µM | MIC [2]: ≥ 77 µM
